Measurements taken from US20090221522A1, “METHODS TO CORRECT GENE SET EXPRESSION PROFILES TO DRUG SENSITIVITY” (The Johns Hopkins University, priority 2008, published 2009).

Legend:
[1] = system: Resectable Pancreatic Adenocarcinoma; experiment: Disease free survival after adjuvant gemcitabine; type: in vivo, human
Procedure: Statistical analysis was performed using software SPSS version 16 (SPSS Inc., Chicago, Ill.). P-values <0.05 were regarded as significant. Disease free survival (DFS) was analyzed using the Kaplan-Meier method and compared with the log-rank test.
The connectivity concept of the present invention can be used with actual patient profiles. Patients were recruited under the Phase II Study of an Individualized Drug Treatment Selection Process Based on a Tumor Xenograft Model for Patients with Resectable Pancreatic Adenocarcinoma (JHOC-J0507 JHOC-05041402, NCT00276744). All patients signed the informed consent of this trial. Twenty-four of the patients with complete follow-up data were included in this study. Direct-patient xenograft cases from the PancXenoBank, Rubio-Viqueira B, Jimeno A, Cusatis G, et al: An In vivo Platform for Translational Drug Development in Pancreatic Cancer. Clin Cancer Res 12:4652-4661, 2006, were also used.
The mean age of diagnosis for these patients is 65 years (range from 41 to 81 years). All patients received gemcitabine as adjuvant chemotherapy. Herrmann R, Bodoky G, Ruhstaller T, et al: Gemcitabine Plus Capecitabine Compared With Gemcitabine Alone in Advanced Pancreatic Cancer: A Randomized, Multicenter, Phase III Trial of the Swiss Group for Clinical Cancer Research and the Central European Cooperative Oncology Group. […] Cancer 85:1261-1268, 1999. […] See Oettle H, Post S, Neuhaus P, et al: Adjuvant Chemotherapy with Gemcitabine vs. Observation in Patients Undergoing Curative-Intent Resection of Pancreatic Cancer: A Randomized Controlled Trial. JAMA 297:267-277, 2007. The median DFS for these patients was 291 days.
Using the methods of the present invention, where a patient is connected to a sensitive cell line, the patient will be predicted as sensitive to gemcitabine and vice versa. This approach achieved an overall prediction accuracy of 71% on these retrospective patient samples. […] The positive predicted value and negative predicted value are 73% and 69%, respectively. […]

pancreatic cancer = conditions: cited from earlier work
[2] = system: patient-derived xenografts refractory to gemcitabine; experiment: Pre-clinical second-line study in xenografts refractory to gemcitabine (TGI); type: in vivo, mice; conditions: for TGI: treated with gemcitabine (first line)
Procedure: FIG. 11 illustrates a pre-clinical design.
FIG. 12 illustrates validation on the xenografts of FIG. 11 based on prediction according to the present invention. Four xenograft cases were used. […] A case is defined as a responder to the drug treatment if Tumor Growth Inhibition (TGI) is <20%. Negative TGI values indicate tumor regression.
Relative tumor growth index (TGI) was calculated as TGI=(Ti−T0/Ci−C0) if Ti>T0 (indicates tumor growth inhibition) and TGI=(Ti−T0) if Ti≦T0 (indicates tumor regression). T and C represent tumor size in the treated and control group at the last of experiment, respectively; T0 and C0 represent tumor size in the treated and control group at the start of treatment, respectively.
Seven FDA approved anticancer agents (capecitabine, cisplatin, docetaxel, doxorubicin, etoposide, irinotecan and oxaliplatin) were used as potential second line of drugs for selection according to the present invention. The one-size-fits-all treatment was erlotinib, an FDA approved targeted therapy for advanced pancreatic cancer. See Moore M J, Goldstein D, Hamm J, et al. Erlotinib plus gemcitabine compared with gemcitabine alone in patients with advanced pancreatic cancer: a phase Ill trial of the National Cancer Institute of Canada Clinical Trials Group. J Clin Oncol 25:1960-06 2007. […] Xenograft models of these cases were randomly assigned to (i) control, (ii) erlotinib arm (one-size-fits-all second line treatment) and (iii) molecular mimicry arm (i.e., drug selection according to the present invention). For the molecular mimicry arm, the baseline gene expression profiles of these cases were connected the NCI reference panel using GS-CMAP, and one of the seven anticancer agents was assigned to the case based on comparing the GI50 among these drugs. Molecular mimicry predicted that JH033 and JH034 are sensitive to docetaxel, PANC185 is sensitive to irinotecan and PANC219 is sensitive to doxorubicin. These cases were treated with the molecular mimicry choice of drugs and tumor volumes were measured. At the end of the experiment, xenografts treated with molecular mimicry choice of drugs had higher tumor growth inhibition than their litter mates treated with erlotinib (FIGS. 12 and 13).

Nc1ccn([C@@H]2O[C@H](CO)[C@@H](O)C2(F)F)c(=O)n1 [gemcitabine]
median DFS ([1]; all 24 patients, gemcitabine as adjuvant chemotherapy): 291 days
median DFS ([1]; predicted gemcitabine resistant group): 162 days
median DFS ([1]; predicted gemcitabine sensitive group): 491 days
patients who benefit from this therapy (pancreatic cancer; first-line): ~20%
response rate (pancreatic cancer; pancreatic cancer patients): less than 20%
median TGI ([2]; four xenograft cases (PANC185, PANC219, JH033, JH034)): 36.5%
TGI ([2]; xenograft JH033): more than 20%
TGI ([2]; xenograft JH034): more than 20%
TGI ([2]; xenograft PANC185): more than 20%
TGI ([2]; xenograft PANC219): more than 20%
